Experimental data from PubChem BioAssay (NCI).
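Each compound was tested at five concentrations against cells in 96-well plates for 48 hours. TGI denotes the concentration required for complete inhibition of growth.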

Legend:
Assay in all cases: NCI-60 cell line screen, 48 h
[1] = system: MDA-MB-435
[2] = system: UACC-62 melanoma
[3] = system: SF-295 CNS
[4] = system: A549 NSCLC
[5] = system: NCI-H226 lung
[6] = system: M14 melanoma
[7] = system: DU-145 prostate
[8] = system: COLO 205 colon
[9] = system: OVCAR-4 ovarian
[10] = system: HCT-116 colon
[11] = system: NCI-H23 lung
[12] = system: NCI-H460 lung
[13] = system: OVCAR-8 ovarian
[14] = system: ACHN renal
[15] = system: HT29 colon
[16] = system: SK-MEL-5 melanoma
[17] = system: MOLT-4 leukemia
[18] = system: OVCAR-3 ovarian
[19] = system: HCT-15 colon

Row | Structure (SMILES) | TGI [1] [µM] | TGI [2] [µM] | TGI [3] [µM] | TGI [4] [µM] | TGI [5] [µM] | TGI [6] [µM] | TGI [7] [µM] | TGI [8] [µM] | TGI [9] [µM] | TGI [10] [µM] | TGI [11] [µM] | TGI [12] [µM] | TGI [13] [µM] | TGI [14] [µM] | TGI [15] [µM] | TGI [16] [µM] | TGI [17] [µM] | TGI [18] [µM] | TGI [19] [µM]
1 | CC[C@H]1C=CCC[C@@]2(C[C@@H]3CC[C@H]4[C@H](C(=O)OCCCCCCCCCCCCCCCC(=O)N(CCCN)C[C@@H](O)CCN)[C@]5(CCC[C@@H](C)O5)NC(=[N+]34)N2)O1 | 1.2 | 0.412 | 3.31 | 1.74 | 3.32 | 0.495 | 2.3 | 1.3 | 2.44 | 1.31 | 3.21 | 1.87 | 2.92 | 1.84 | 1.48 | 1.31 | 1.29 | 3.02 | 2.18
2 | CCc1ccccc1NC(=O)C(=O)CC(=O)c1sc(Nc2ccccc2Cl)nc1C | 66.4 | > 100 | 99.2 | 80 | > 100 | 63.7 | > 100 | 52.3 | > 100 | 50.4 | > 100 | 46.1 | > 100 | > 100 | > 100 | 52.4 | 49.8 | 61 | 92
3 | CCOC(=O)c1ccc(N=c2oc3ccc(OC)cc3cc2-c2nc3ccccc3[nH]2)cc1 | > 100 | > 100 | > 100 | > 100 | 8.58 | > 100 | > 100 | > 100 | > 100 | > 100 | > 100 | > 100 | 43.2 | > 100 | > 100 | 80.4 | > 100 | > 100 | > 100
4 | CC1=CC(=O)/C(=C/n2c(=S)[nH]c3ccc([N+](=O)[O-])cc32)C(=O)O1 | > 100 | > 100 | > 100 | > 100 | > 100 | > 100 | > 100 | > 100 | > 100 | > 100 | > 100 | > 100 | > 100 | > 100 | > 100 | > 100 | > 100 | > 100 | > 100
5 | O=[N+]([O-])c1ccc(C(=Nc2ccccc2)SSC(=Nc2ccccc2)c2ccc([N+](=O)[O-])o2)o1 | 6.17 | 3.4 | 8.31 |  | 56.4 | 4.85 | 3.6 | 2.44 | 3 | 2.95 | 3.38 | > 25.5 | 3.75 | 5.21 | 4.1 | 20.9 | > 24 | 3.38 | 2.2
6 | CC(=O)CCC[C@H](C)[C@@H](O)[C@@H]1O[C@H]([C@@]2(C)CCC(=O)O2)C[C@H]1C(=O)O | > 100 | > 100 | > 100 | > 100 | > 100 |  | > 100 | > 100 | > 100 | > 100 | > 100 | > 100 | > 100 | > 100 | > 100 | > 100 | > 100 | > 100 | > 100
